Experimental data as given in US20110230481A2, “DERIVATIVES OF TETRABROMOBENZIMIDAZOLE, A PROCESS FOR THE PREPARATION THEREOF, A PHARMACEUTICAL COMPOSITION COMPRISING THE SAME, A METHOD OF USING THE SAME, A METHOD FOR MODULATING OR REGULATING SERINE/THREONINE KINASES, AND SERINE/THREONINE KINASES MODULATING AGENT” (SELVITA S.A., priority 2009, published 2011).
Where two headings read alike, the source gives them in different places. Each block holds one compound with its values, some of them ahead of it.

Tests used:
[1] = test system: human acute myeloid leukemia MOLM-13 cells; assay: Growth inhibition test (MTS); assay type: cell-based; settings: MOLM13, 72 hours, read-out: Cytotoxicity in MTS assay (ED50)
Method: Ten thousand cells of acute myeloid leukemia MOLM-13 were inoculated into each well of a 96-well microplate (manufactured by Corning Corp.) using RPMI 8226 medium (culture medium) containing 10% fetal calf serum (FCS). The same day, a dimethyl sulfoxide (DMSO) solution of each test compound prepared in a concentration of 10 mmol/L was further diluted with DMSO to the desired concentrations (0.1, 0.5, 1, 2.5, 5 and 10 micromol/L), and the diluted solution was added to each well. The individual wells were further cultured in 5% carbon dioxide at 37° C. for 72 hours. After completion of the culture, 10 μl MTS (3-(4,5-Dimethyl-2-thiazolyl)-5-(carboxymethoxyphenyl)-2-(4-sulfophenyl)-2H-tetrazolium, inner salt assay (CellTiter96® AQueous One Solution Cell Proliferation Assay, Promega) was added to each well, and culturing was performed in 5% carbon dioxide at 37° C. for 2 hours. Using a microplate spectrophotometer (Synergy 2 multi-mode microplate reader (BioTek)), the absorbance of each well was measured at 490 nm. The value for cells not incorporated with a test compound was designated as 100%. By comparing these values with the absorbance difference obtained at the well in which each test compound was added, the cell viability (% viability) after treatment with the test compound was calculated.

PIM3 = PIM3 (Homo sapiens, UniProt Q86V86); assay: Radiometric kinase assay (HotSpot); settings: for Selectivity for Pim-3 over CK2α: ratio of IC50 values
[2] = test system: human acute promyelocytic leukemia HL-60 cells; assay: Growth inhibition test (MTS); assay type: cell-based; settings: 72 hours
Method: (§1) Ten thousand cells of human acute promyelocytic leukemia HL-60 were inoculated into each well of a 96-well microplate (manufactured by Corning Corp.) using RPMI 8226 medium (culture medium) containing 10% fetal calf serum (FCS). The same day, a dimethyl sulfoxide (DMSO) solution of each test compound prepared in a concentration of 10 mmol/L was further diluted with DMSO to the desired concentrations (0.1, 0.5, 1, 2.5, 5 and 10 micromol/L), and the diluted solution was added to each well. The individual wells were further cultured in 5% carbon dioxide at 37° C. for 72 hours. After completion of the culture, 10 μl MTS (3-(4,5-Dimethyl-2-thiazolyl)-5-(carboxymethoxyphenyl)-2-(4-sulfophenyl)-2H-tetrazolium, inner salt assay (CellTiter96® AQueous One Solution Cell Proliferation Assay, Promega) was added to each well, and culturing was performed in 5% carbon dioxide at 37° C. for 2 hours. Using a microplate spectrophotometer (Synergy 2 multi-mode microplate reader (BioTek)), the absorbance of each well was measured at 490 nm. The value for cells not incorporated with a test compound was designated as 100%. By comparing these values with the absorbance difference obtained at the well in which each test compound was added, the cell viability (% viability) after treatment with the test compound was calculated.

[3] = test system: human chronic myelocytic leukemia K562 cells; assay: Growth inhibition test (MTS); assay type: cell-based; settings: 72 hours
Method: as §1, with “chronic myelocytic” for “acute promyelocytic”, “K562” for “HL-60”, “Iscove's MDM” for “RPMI 8226”

[4] = test system: human prostate carcinoma DU145 cells; assay: Growth inhibition test (MTS); assay type: cell-based; settings: 72 hours
Method: as §1, with “Two” for “Ten”, “prostate carcinoma DU145” for “acute promyelocytic leukemia HL-60”, “Corp.), and” for “Corp.)”, “DMEM” for “RPMI 8226”, “innersalt” for “inner salt”

PIM2 = PIM2 (Homo sapiens, UniProt Q9P1W9); assay: Radiometric kinase assay (HotSpot); settings: for Selectivity for Pim-2 over CK2α: ratio of IC50 values
PIM2, sequence (Q9P1W9 whole entry): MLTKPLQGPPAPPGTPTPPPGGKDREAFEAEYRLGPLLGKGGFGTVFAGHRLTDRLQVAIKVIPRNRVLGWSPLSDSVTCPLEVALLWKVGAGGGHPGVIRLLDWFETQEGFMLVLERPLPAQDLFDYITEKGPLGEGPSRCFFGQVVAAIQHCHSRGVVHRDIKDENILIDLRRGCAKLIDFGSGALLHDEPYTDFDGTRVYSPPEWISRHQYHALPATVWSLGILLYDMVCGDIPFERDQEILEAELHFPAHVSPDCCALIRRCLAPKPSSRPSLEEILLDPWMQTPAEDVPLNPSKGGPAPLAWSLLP

[5] = test system: human chronic myelogenous leukemia MEG-01 cells; assay: Growth inhibition test (MTS); assay type: cell-based; settings: MEG01; 72 hours
Method: as §1, with “chronic myelogenous” for “acute promyelocytic”, “MEG-01” for “HL-60”

[6] = read-out: Inhibitory activity (IC50 in nM) in radiometric cell free assay, Pim-3, ATP 1 μM, peptide 20 μM
[7] = read-out: Inhibitory activity (IC50 in nM) in radiometric cell free assay, Pim-2, ATP 1 μM, peptide 5 μM

Compound: NCCCNc1nc2c(Br)c(Br)c(Br)c(Br)c2[nH]1 [Compound 11, N-(3-aminopropyl)-4,5,6,7-tetrabromo-1H-benzo[d]imidazol-2-amine]
- IC50 ([1]; Homo sapiens, MOLM-13): 1.37 µM
- IC50 (PIM3): 23.3 nM
- Selectivity for Pim-3 over CK2α (PIM3): 43.6
- Cytotoxicity in MTS assay (ED50) [2]: 6.12 µM
- Cytotoxicity in MTS assay (ED50) [3]: 7.48 µM
- Cytotoxicity in MTS assay (ED50) [4]: 7.62 µM
- IC50 (PIM2): 98.2 nM
- Selectivity for Pim-2 over CK2α (PIM2): 10.3
- Cytotoxicity in MTS assay (ED50) [5]: 7.85 µM

- IC50 (PIM3): 60.7 nM
- Selectivity for Pim-3 over CK2α (PIM3): 37.3
- IC50 (PIM2): 897 nM
- Selectivity for Pim-2 over CK2α (PIM2): 2.5
Compound: Brc1c(Br)c(Br)c2[nH]c(NCCN3CCCCC3)nc2c1Br [Compound 13, 4,5,6,7-tetrabromo-N-(2-(piperidin-1-yl)ethyl)-1H-benzo[d]imidazol-2-amine]
- IC50 ([1]; Homo sapiens, MOLM-13): 2.18 µM
- Cytotoxicity in MTS assay (ED50) [2]: 3.29 µM
- Cytotoxicity in MTS assay (ED50) [4]: 4.1 µM
- Cytotoxicity in MTS assay (ED50) [5]: 4.37 µM

- IC50 (PIM3): 28.2 nM
- Selectivity for Pim-3 over CK2α (PIM3): 29.6
- IC50 (PIM2): 618 nM
- Selectivity for Pim-2 over CK2α (PIM2): 1.3
Compound: Brc1c(Br)c(Br)c2[nH]c(NCCN3CCCC3)nc2c1Br [Compound 14, 4,5,6,7-tetrabromo-N-(2-(pyrrolidin-1-yl)ethyl)-1H-benzo[d]imidazol-2-amine]
- IC50 ([1]; Homo sapiens, MOLM-13): 1.45 µM
- Cytotoxicity in MTS assay (ED50) [2]: 2.04 µM
- Cytotoxicity in MTS assay (ED50) [4]: 3.14 µM
- Cytotoxicity in MTS assay (ED50) [5]: 3.35 µM

- IC50 (PIM3): 114 nM
- Selectivity for Pim-3 over CK2α (PIM3): 60.1
- IC50 (PIM2): 3010 nM
- Selectivity for Pim-2 over CK2α (PIM2): 2.3
Compound: Brc1c(Br)c(Br)c2[nH]c(NCCN3CCOCC3)nc2c1Br [Compound 16, 4,5,6,7-tetrabromo-N-(2-morpholinoethyl)-1H-benzo[d]imidazol-2-amine]
- IC50 ([1]; Homo sapiens, MOLM-13): 4.66 µM
- Cytotoxicity in MTS assay (ED50) [2]: >10 µM
- Cytotoxicity in MTS assay (ED50) [4]: 8.64 µM

Compound: Brc1c(Br)c(Br)c2[nH]c(N3CCNCC3)nc2c1Br [Compound 20, 4,5,6,7-tetrabromo-2-(piperazin-1-yl)-1H-benzo[d]imidazole]
- IC50 ([1]; Homo sapiens, MOLM-13): 1.59 µM
- IC50 (PIM3): 42 nM
- Selectivity for Pim-3 over CK2α (PIM3): 3.1
- Cytotoxicity in MTS assay (ED50) [2]: 7.88 µM
- Cytotoxicity in MTS assay (ED50) [3]: 7.25 µM
- Cytotoxicity in MTS assay (ED50) [4]: 9.27 µM
- IC50 (PIM2): 326 nM
- Selectivity for Pim-2 over CK2α (PIM2): 0.4
- Cytotoxicity in MTS assay (ED50) [5]: 4.49 µM

- IC50 (PIM3): 84.1 nM
- Selectivity for Pim-3 over CK2α (PIM3): 21.7
- IC50 (PIM2): 1690 nM
- Selectivity for Pim-2 over CK2α (PIM2): 1.1
Compound: CN1CCN(c2nc3c(Br)c(Br)c(Br)c(Br)c3[nH]2)CC1 [Compound 21, 4,5,6,7-tetrabromo-2-(4-methylpiperazin-1-yl)-1H-benzo[d]imidazole]
- IC50 ([1]; Homo sapiens, MOLM-13): 1.61 µM
- Cytotoxicity in MTS assay (ED50) [2]: >10 µM
- Cytotoxicity in MTS assay (ED50) [4]: 9.54 µM

Compound: Brc1c(Br)c(Br)c2c(Br)n[nH]c2c1Br [Compound K64, reference compound]
- IC50 [1]: >10 µM
- Selectivity for Pim-3 over CK2α (PIM3): 3.0
- IC50 (PIM3; [6]): 212 nM
- Cytotoxicity in MTS assay (ED50) [3]: >10 µM
- Cytotoxicity in MTS assay (ED50) [4]: >10 µM
- Selectivity for Pim-2 over CK2α (PIM2): 0.7
- IC50 (PIM2; [7]): 871 nM
- Cytotoxicity in MTS assay (ED50) [5]: >10 µM

Compound: CN(C)c1nc2c(Br)c(Br)c(Br)c(Br)c2n1CC(=O)O [Compound K66, reference compound]
- IC50 [1]: >10 µM
- Selectivity for Pim-3 over CK2α (PIM3): 2.1
- IC50 (PIM3; [6]): 96.3 nM
- Cytotoxicity in MTS assay (ED50) [3]: >10 µM
- Cytotoxicity in MTS assay (ED50) [4]: >10 µM
- Selectivity for Pim-2 over CK2α (PIM2): 0.2
- IC50 (PIM2; [7]): 954 nM
- Cytotoxicity in MTS assay (ED50) [5]: >10 µM

Compound: CN(C)c1nc2c(Br)c(Br)c(Br)c(Br)c2[nH]1 [DMAT, reference compound]
- IC50 (PIM3; [6]): 87.3 nM
- Cytotoxicity in MTS assay (ED50) [2]: >10 µM
- Cytotoxicity in MTS assay (ED50) [3]: >10 µM
- Cytotoxicity in MTS assay (ED50) [4]: >10 µM
- IC50 (PIM2; [7]): 2460 nM
- Cytotoxicity in MTS assay (ED50) [5]: 8.91 µM

Compound: Brc1c(Br)c(Br)c2[nH]nnc2c1Br [TBB, reference compound]
- IC50 [1]: >10 µM
- IC50 (PIM3; [6]): 269 nM
- Cytotoxicity in MTS assay (ED50) [3]: >10 µM
- Cytotoxicity in MTS assay (ED50) [4]: >10 µM
- IC50 (PIM2; [7]): > 20000 nM
- Cytotoxicity in MTS assay (ED50) [5]: >10 µM

Compound: Brc1c(Br)c(Br)c2[nH]cnc2c1Br [TBI, reference compound]
- IC50 [1]: 9.72 µM
- IC50 (PIM3; [6]): 2940 nM
- Cytotoxicity in MTS assay (ED50) [3]: >10 µM
- Cytotoxicity in MTS assay (ED50) [4]: >10 µM
- IC50 (PIM2; [7]): > 20000 nM
- Cytotoxicity in MTS assay (ED50) [5]: >10 µM
